Earlier results in US20260245667A1, “EFFICIENT DETECTION OF DECENTRALIZED BIOMARKERS OF GROUPS OF DNA SEQUENCES IN MICROBIOME DNA” (ALPHABIOME AI LTD, priority 2023, published 2026).

Columns and labels:
[1] = tested on: ruminal methane production; settings: meta-analyses

Compound	mitigation of methane emissions in vitro (methane emissions; in vitro)	levels of propionate and butyrate (methane emissions; partial incubation periods)	methanogenesis inhibition, reduction on average in dairy [1]
C=CCS[S+]([O-])CC=C (stereo not drawn) [Allicin]	up to 38%	elevate	
CC[C@@]1([C@@H]2O[C@@H]([C@H]3O[C@@](O)(CO)[C@H](C)C[C@@H]3C)C[C@@H]2C)CC[C@H]([C@]2(C)CC[C@]3(C[C@H](O)[C@@H](C)[C@@H]([C@@H](C)[C@@H](OC)[C@H](C)C(=O)O)O3)O2)O1 [Monensin]			up to 10%
